What was measured:
[1] = refractive index (other wavelength) (dimensionless); settings: 100 kPa, Liquid, Wavelength=632.8 nm, minimum deviation angle method
[2] = refractive index (Na D-line) (dimensionless); settings: 298.15 K; 101.33 kPa; Liquid; Standard Abbe refractometry
[3] = refractive index (other wavelength) (dimensionless); xn = mol fraction of the nth substance listed; settings: 100 kPa, Liquid, Wavelength=632.8 nm, minimum deviation angle method, x2 = 0

CCCC[n+]1ccccc1.F[B-](F)(F)F [1-butylpyridinium tetrafluoroborate]
[1]
Settings	refractive index
281.73 K	1.4481
282.78 K	1.4478
284.14 K	1.4475
285.74 K	1.4471
286.94 K	1.4468
288.24 K	1.4464
289.38 K	1.4461
290.37 K	1.4458
292.15 K	1.4454
293.41 K	1.4451
295 K	1.4446
296.89 K	1.444

Settings	refractive index
[2]	1.4459

CCO [ethanol]
[1]
Settings	refractive index
282.04 K	1.3645
283.11 K	1.364
284.04 K	1.3637
285.65 K	1.363
286.62 K	1.3626
288.17 K	1.362
289.33 K	1.3615
290.8 K	1.3609
291.84 K	1.3604
292.94 K	1.36
293.77 K	1.3596
295.49 K	1.3589
296.51 K	1.3585
297.44 K	1.3581
298.14 K	1.3578

Settings	refractive index
[2]	1.3596

CCO [ethanol] + CCCC[n+]1ccccc1.F[B-](F)(F)F
[3]
Settings	refractive index
282.04 K	1.3645
283.11 K	1.364
284.04 K	1.3637
285.65 K	1.363
286.62 K	1.3626
288.17 K	1.362
289.33 K	1.3615
290.8 K	1.3609
291.84 K	1.3604
292.94 K	1.36
293.77 K	1.3596
295.49 K	1.3589
296.51 K	1.3585
297.44 K	1.3581
298.14 K	1.3578

Source: the NIST ThermoML archive (doi:10.1016/j.jct.2017.02.014)
